Measured values reported in ChEMBL document CHEMBL1129225, “Synthesis of 11,13-bridged progestational steroids” (1997).
Active and inactive are the calls of the source. The rule behind the calls is not given here.

target: T1, Progesterone receptor (Homo sapiens) (UniProt P06401); assay: Relative binding affinity to progesterone receptor of MCF-7 cytosol; No competitive binding
T1 sequence (whole entry): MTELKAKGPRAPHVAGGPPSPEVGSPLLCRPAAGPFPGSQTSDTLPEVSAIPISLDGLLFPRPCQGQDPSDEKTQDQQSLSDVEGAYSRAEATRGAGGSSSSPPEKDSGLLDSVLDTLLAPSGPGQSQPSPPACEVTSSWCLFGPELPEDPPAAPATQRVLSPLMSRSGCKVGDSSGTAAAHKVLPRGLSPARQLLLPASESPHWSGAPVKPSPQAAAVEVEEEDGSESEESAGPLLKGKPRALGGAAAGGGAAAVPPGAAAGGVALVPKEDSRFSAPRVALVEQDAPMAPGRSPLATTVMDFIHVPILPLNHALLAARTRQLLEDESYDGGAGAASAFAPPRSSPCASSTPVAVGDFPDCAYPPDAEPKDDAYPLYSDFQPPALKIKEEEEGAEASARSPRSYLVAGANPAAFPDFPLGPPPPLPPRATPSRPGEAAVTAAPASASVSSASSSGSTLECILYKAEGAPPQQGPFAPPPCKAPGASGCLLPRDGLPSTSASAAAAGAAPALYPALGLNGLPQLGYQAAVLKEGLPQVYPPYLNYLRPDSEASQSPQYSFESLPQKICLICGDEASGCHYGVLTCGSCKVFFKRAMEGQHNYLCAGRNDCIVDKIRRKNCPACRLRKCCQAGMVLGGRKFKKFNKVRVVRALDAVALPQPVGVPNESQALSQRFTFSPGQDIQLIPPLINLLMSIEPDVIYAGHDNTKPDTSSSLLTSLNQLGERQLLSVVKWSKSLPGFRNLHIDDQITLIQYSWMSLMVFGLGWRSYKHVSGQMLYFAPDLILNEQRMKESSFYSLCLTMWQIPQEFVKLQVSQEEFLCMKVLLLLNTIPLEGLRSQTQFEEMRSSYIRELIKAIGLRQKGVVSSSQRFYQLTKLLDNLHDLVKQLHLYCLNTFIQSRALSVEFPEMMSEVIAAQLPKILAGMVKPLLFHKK

relative binding affinity (RBA) | SMILES
inactive | C#C[C@]1(O)CCC2C3CCC4=CC(=O)CCC4C3[C@@H]3C[C@@]21CO3 (stereo partly specified)

test system: Oryctolagus cuniculus; assay: In vivo activity using McPhail test after oral dose; type: functional

SMILES | ED2 [mg/kg]
C#C[C@]1(O)CCC2C3CCC4=CC(=O)CCC4C3[C@@H]3C[C@@]21CO3 (stereo partly specified) | >4
C#C[C@]1(O)CCC2C3CCC4=CC(=O)CCC4C3[C@@H](C)CC21C (stereo partly specified) | 0.015
C#C[C@]1(O)CC[C@H]2[C@@H]3CCC4=CC(=O)CC[C@@H]4[C@H]3CC[C@@]21C [NORETHINDRONE] | 0.5
C#C[C@]1(O)CCC2C3CCC4=CC(=O)CCC4C3[C@H]3CC[C@]21C3 (stereo partly specified) | 0.032
C#C[C@]1(O)CCC2C3CCC4=CC(=O)CCC4C3[C@H]3C=C[C@]21C3 (stereo partly specified) | >0.125
